Here are results for 1 sequence from PMC7324617, “Selection and identification of a novel bone-targeting peptide for biomedical imaging of bone” (Scientific Reports, 2020).

The nature of series [1]: Blood analysis for in vivo clearance. More on the design: species or system mice. To be noted: blood samples 10 μL at 1, 3, 6 and 12 h after intravenous injection of Cy5.5-HA pep3; fluorescence (IVIS). From the text: We used X-ray function of in vivo imaging machine, IVIS Lumina XRMS and performed X-ray imaging of the mice with Cy5.5-HA pep3. With x-ray images, we could observe the high fluorescence intensity at spine (Figure S5a). In additions, we compared its biodistribution in vivo to our Cy5.5-HA pep3 and E7 positive peptide after intravenous injection. […] In addition, we performed blood analysis to determine clearance of our peptide in vivo (Figure S6).
All animal studies were approved by the Institutional Review Board of the Catholic University of Korea (approval No. CUMC-2019-0003-01). BALB/c nude mice (4 weeks old, OrientBio, Seongnam city, Korea) and wild type C3H/HeN mice were used for in vivo imaging. Cy5.5-scramble peptide or Cy5.5-HAp peptide (5 mg/kg of peptide in 100 µL physiological saline, n = 3) were administered to the mice by a tail vein injection. […] All images were analyzed with Living Image 4.5 software (PerkinElmer Inc., Massachusetts, USA). […] The fluorescence intensity of […] in samples was measured by IVIS Lumina XRMS.
Figure S6. […] (a) Time-dependent fluorescence images of blood sample obtained from mice tail at 1, 2, 3, 6 and 12h after intravenous injection of Cy5.5-HA pep3. (b) Average fluorescence intensity graph of the blood samples in (a).

Another series deals with Saos-2 cells. The series can be described thus: Cytotoxicity assay (WST-1) in Saos-2 cells. In kind it is cell-based. The conditions noted are these: 1 nM to 100 μM, 24 h, 48 h and 72 h, WST-1, triplicates. Here is the method: The biocompatibility of HA-pep3 is important for assessing the feasibility of its in vivo application. Therefore, we performed HA-pep3 cytotoxicity assessment in osteoblastic Saos-2 osteogenic cells for 24 h, 48 h and 72 h (Fig. 6a and Figure S3). The cell viability was measured using various concentrations of HA-pep3 ranging from 1 nM to 100 μM. […] Next, we analyzed HA-pep3 in vivo application feasibility. We used Cy5.5 dye with near-infrared wavelength for in vivo imaging, to minimize tissue adsorption. After Cy5.5 dye labeling, scrambled peptide and HA-pep3 were injected into the tail vein of nude mice. […] The fluorescence intensity in bone was about 3.32 folds higher for Cy5.5-HA-pep3 than for a scrambled sequence (Fig. 6d).
Saos-2 osteosarcoma osteogenic primary cell line was purchased from the Korean cell line bank. Cells were cultured in […] medium with L-glutamine (300 mg/L), 25 mM HEPES, and 25 mM NaHCO3 supplemented with 10% heat-inactivated fetal bovine serum (FBS), 100 U/mL penicillin, and 100 μg/mL streptomycin. The cell lines were cultured at 37 °C and up to 5% CO2 in humidified atmosphere. All reagents and cell culture media were purchased from the WELGENE Company, South Korea. HA-pep3 cytotoxicity was examined using WST-1 assay. […] Finally, the absorbance was measured at 450 nm using a microplate spectrophotometer (Tecan Infinite 200). […]
(In general: Tetrazolium dyes change colour on reduction, which living cells bring about.)

Entries after “also recorded” stand apart in the source; their conditions may differ. Where no end group is shown, it is not given here.

As to KNFQSRSH [HA-pep3], in series [1], the clearance from blood result is “disappeared in blood after 12 h”. For the same sequence, the “cytotoxicity (cell viability)” value in the series on Saos-2 cells is reported as “no cytotoxicity; also recorded: did not show any cytotoxicity up to 100 μM”.
